Data as given in patent US6013242A, “Tropane derivatives with selective binding to the serotonin reuptake transporters for treatment of mental illness and as intermediates in the formation of imaging diagnostic agents for depression” (Wake Forest University, priority 1998, dated 2000).
Like-named read-outs stand apart in the source and are kept apart here.

Experiments:
[1] = target: T1, serotonin (5-HT) transporter (Rattus norvegicus, UniProt P31652); assay: displacement of [3H]paroxetine binding to 5-HT transporter; conditions: for 5-HT/DA potency ratio: selectivity for 5-HT over DA transporter; for 5-HT/NE potency ratio: selectivity for 5-HT over NE transporter
T1 construct: from tissue; host or cells: rat frontal cortex

[2] = target: T2, dopamine (DA) transporter (Rattus norvegicus, UniProt P23977); assay: displacement of [125I]RTI-55 binding to dopamine transporter; conditions: [125I]RTI-55, rat striatal membranes
T2 construct: was used to label dopamine transporters in rat striatal membranes; from tissue; host or cells: rat striatum (membranes)

[3] = target: T3, norepinephrine (NE) transporter (Rattus norvegicus, UniProt Q63380); assay: displacement of [3H]nisoxetine binding to NE transporter; conditions: rat brain membranes
T3 construct: rat brain membranes; from tissue

[4] = target: T1, serotonin (5-HT) transporter; conditions: earlier tropanes (U.S. Ser. No. 08/589,820), 5-HT vs dopamine transporter; cited from earlier work
[5] = [3H]paroxetine, rat frontal cortex

T2 sequence (P23977 whole entry): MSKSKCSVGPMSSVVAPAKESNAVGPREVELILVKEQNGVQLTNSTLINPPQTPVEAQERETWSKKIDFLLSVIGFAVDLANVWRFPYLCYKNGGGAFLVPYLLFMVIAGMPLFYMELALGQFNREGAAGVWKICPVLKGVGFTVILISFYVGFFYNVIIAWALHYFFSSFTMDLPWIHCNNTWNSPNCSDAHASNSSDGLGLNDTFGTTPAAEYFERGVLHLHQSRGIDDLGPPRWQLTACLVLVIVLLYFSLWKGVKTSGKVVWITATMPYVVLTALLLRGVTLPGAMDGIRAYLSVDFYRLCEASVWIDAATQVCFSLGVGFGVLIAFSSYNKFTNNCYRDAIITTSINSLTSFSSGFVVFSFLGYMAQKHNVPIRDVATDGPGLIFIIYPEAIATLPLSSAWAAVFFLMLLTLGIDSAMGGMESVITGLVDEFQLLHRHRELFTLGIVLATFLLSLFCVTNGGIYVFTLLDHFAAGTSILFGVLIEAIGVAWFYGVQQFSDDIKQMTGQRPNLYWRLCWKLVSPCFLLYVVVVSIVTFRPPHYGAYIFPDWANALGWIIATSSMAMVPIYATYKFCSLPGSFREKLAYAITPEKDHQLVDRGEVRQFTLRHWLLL
T1 sequence (P31652 whole entry): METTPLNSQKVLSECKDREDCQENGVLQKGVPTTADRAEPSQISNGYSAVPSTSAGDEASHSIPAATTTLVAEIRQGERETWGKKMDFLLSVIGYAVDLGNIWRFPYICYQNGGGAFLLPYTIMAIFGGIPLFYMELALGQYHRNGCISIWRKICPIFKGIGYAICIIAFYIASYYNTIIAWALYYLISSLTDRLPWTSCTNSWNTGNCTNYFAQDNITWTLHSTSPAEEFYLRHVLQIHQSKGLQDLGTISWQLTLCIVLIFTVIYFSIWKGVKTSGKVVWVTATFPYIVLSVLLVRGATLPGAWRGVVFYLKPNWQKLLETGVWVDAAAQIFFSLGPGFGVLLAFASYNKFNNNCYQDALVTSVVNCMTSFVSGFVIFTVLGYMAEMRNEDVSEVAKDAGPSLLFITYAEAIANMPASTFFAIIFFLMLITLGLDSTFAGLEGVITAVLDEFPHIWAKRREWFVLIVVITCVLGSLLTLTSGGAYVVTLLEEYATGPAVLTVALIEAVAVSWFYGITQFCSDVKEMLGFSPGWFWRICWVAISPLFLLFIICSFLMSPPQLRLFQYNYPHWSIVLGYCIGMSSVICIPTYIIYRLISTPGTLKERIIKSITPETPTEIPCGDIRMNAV
T3 sequence (Q63380 1-617): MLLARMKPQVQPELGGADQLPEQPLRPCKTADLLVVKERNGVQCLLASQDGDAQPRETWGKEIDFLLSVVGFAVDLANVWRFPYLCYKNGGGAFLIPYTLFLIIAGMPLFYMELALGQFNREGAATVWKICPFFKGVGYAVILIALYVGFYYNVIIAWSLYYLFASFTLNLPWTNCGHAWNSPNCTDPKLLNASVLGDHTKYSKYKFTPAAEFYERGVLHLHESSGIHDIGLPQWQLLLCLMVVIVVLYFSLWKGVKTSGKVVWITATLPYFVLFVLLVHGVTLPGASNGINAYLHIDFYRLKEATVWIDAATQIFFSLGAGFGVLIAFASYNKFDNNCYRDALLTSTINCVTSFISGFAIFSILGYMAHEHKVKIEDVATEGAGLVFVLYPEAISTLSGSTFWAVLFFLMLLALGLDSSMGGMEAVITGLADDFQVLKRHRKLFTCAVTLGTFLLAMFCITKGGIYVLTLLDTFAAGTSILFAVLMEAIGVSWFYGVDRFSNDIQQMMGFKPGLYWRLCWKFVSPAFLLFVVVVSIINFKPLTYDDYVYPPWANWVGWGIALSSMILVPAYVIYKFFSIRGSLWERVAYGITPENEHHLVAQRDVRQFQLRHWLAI

Compound | Ki [1] | 5-HT/DA potency ratio [1] | 5-HT/NE potency ratio [1] | IC50 [2] | Ki [3] | Ki [1, 5] | transporter selectivity (in words) [4]
CCC(=O)[C@H]1[C@@H](c2ccc(C=C(C)C)cc2)C[C@@H]2CC[C@H]1N2 (relative stereo) [Example 6, 2.beta .-Propanoyl-3β-[4-(2-methylpropenyl)phenyl]-8-azabicyclo[3.2.1]octanem] | 0.404 ± 0.1 nM | 240 | 3097 | 96.3 ± 17.1 nM | 1250 ± 124 nM |  | 
CCC(=O)[C@H]1[C@@H](c2ccc(/C=C(\C)I)cc2)C[C@@H]2CC[C@H]1N2 (relative stereo) [Example 12, (E)-2β-Propanoyl-3. beta.-[4-(2-iodopropenyl)phenyl]-8-azabicyclo[3.2.1]octane] | 0.566 ± 0.027 nM | 708 | 645 | 401 ± 73 nM | 365 ± 118 nM |  | 
CCC(=O)[C@H]1[C@@H](c2ccc(C=C(C)C)cc2)C[C@@H]2CC[C@H]1N2C (relative stereo) [Example 5, 8-Methyl-2β-Propanoyl-3β-[4-(2-methylpropenyl)phenyl]-8-azabicyclo[3.2.1]octane] |  | 6 | 448 | 51.3 ± 15.5 nM | 4130 ± 785 nM | 9.22 ± 2.4 nM | 
CCC(=O)C1C(c2ccc3ccccc3c2)CC2CCC1N2C (stereo not shown) [2-naphthyl derivative] |  |  |  |  |  |  | unselective
CC=Cc1ccc(C2CC3CCC(N3)C2C(=O)CC)cc1 [Example 10, (R)-(E )-2β-Propanoyl-3β-[4-(1-propenyl)phenyl]-8-azabicyclo[3.2.1]octane] | 0.236 nM | 8 | 108 | 1.94 ± 0.96 nM | 25.6 ± 9.6 nM |  | 
C=C(C)c1ccc([C@H]2C[C@@H]3CC[C@H]([C@H]2C(=O)CC)N3C)cc1 (relative stereo) [Example 1] | 0.82 ± 0.38 nM | 8.8 | 970 | 7.2 ± 2.1 nM | 794 ± 110 nM |  | 
C/C=C/c1ccc([C@H]2C[C@@H]3CC[C@H]([C@H]2C(=O)CC)N3C)cc1 [Example 9, (R)-(E )-8-Methyl-2β-propanoyl-3β-[4-(1-propenyl)phenyl]-8-azabicyclo[3.2.1]octane] | 1.17 ± 0.46 nM | 1.5 | 250 | 1.59 ± 0.66 nM | 292 ± 71.7 nM |  | 
CCC(=O)[C@H]1[C@@H](c2ccc(/C=C/I)cc2)C[C@@H]2CC[C@H]1N2 (relative stereo) [Example 11, (E)-2β-Propanoyl-3β-[4-(2-iodoethenyl)phenyl]-8-azab icyclo[3.2.1]octane] | 0.619 ± 0.078 nM | 83 | 80 | 51.3 ± 5.6 nM | 49.7 ± 10.6 nM |  | 
C=C(C)c1ccc([C@H]2C[C@@H]3CC[C@@H](N3)[C@H]2C(=O)CC)cc1 (relative stereo) [Example 2] | 0.11 ± 0.02 nM | 150 | 850 | 16 ± 4.9 nM | 94 ± 18 nM |  | 
C=C(CC)c1ccc(C2CC3CCC(N3)C2C(=O)CC)cc1 [Example 8, (R)-2. beta.-Propanoyl-3β-[4-(1-ethylethenyl)phenyl]-8-azabicyclo[3.2.1]octane] | 0.194 ± 0.1 nM | 200 | 1790 | 37.9 ± 12.9 nM | 347 ± 54.8 nM |  | 
C=C(CC)c1ccc([C@H]2C[C@@H]3CC[C@H]([C@H]2C(=O)CC)N3C)cc1 [Example 7, (R)-8-Methyl-2β-propanoyl-3β-[4-(1-ethylethenyl)phenyl]-8-azabicyclo[3.2.1]octanem] | 1.13 ± 0.3 nM | 20 | 1000 | 22.1 ± 7.76 nM | 1140 ± 606 nM |  | 
CCC(=O)[C@H]1[C@@H](c2ccc(-c3cccn3C)cc2)C[C@@H]2CC[C@H]1N2 (relative stereo) [Example 4, 2.beta .-Propanoyl-3β-[4-(N-methyl-2-pyrrolyl)phenyl]-8-azabicyclo[3.2.1]octane] |  | 590 | > 25,000 | 614 ± 98 nM | > 10000 nM | 1.05 ± 0.2 nM | 
CCC(=O)[C@H]1[C@@H](c2ccc(/C=C(/C)I)cc2)C[C@@H]2CC[C@H]1N2 (relative stereo) [Example 13, (Z)-2β-Pr opanoyl-3β-[4-(2-iodopropenyl)phenyl]-8-azabicyclo[3.2.1]octane] | 0.131 ± 0.03 nM | 507 | 509 | 66.5 ± 11.1 nM | 66.7 ± 17.1 nM |  | 
C=C(C)c1ccc(C2CC3CCC(N3)C2C(=O)CC)cc1 (stereo not shown) [4-(1-methylethenyl)phenyl derivative] |  |  |  |  |  |  | most selective compound described in the previous case
CCC(=O)[C@H]1[C@@H](c2ccc(-c3cccn3C)cc2)C[C@@H]2CC[C@H]1N2C (relative stereo) [Example 3, 8-Methyl-2β-propanoyl-3β-[4-(N-methyl-2-pyrrolyl)phenyl]-8-azabicyclo[3,2,1]octane] |  | 24 | > 15,000 | 703 ± 222 nM | > 10000 nM | 25.6 ± 4.1 nM | 
